Test results from patent publication US20240285502A1, “HAIR GROWTH AGENT” (ADJUVANT HOLDINGS CO., LTD., priority 2021, published 2024).

Tested on: VEGF gene expression in human dermal papilla cells
Assay: Evaluation of human dermal papilla cell VEGF gene expression (real-time PCR)
Format: cell-based
Details: 72 hours stimulation, relative to negative control group, GAPDH internal standard, FIG. 1
Protocol: The VEGF gene is expressed in dermal papilla cells, and contributes to expression of such effects as increase in hair shaft diameter and improving maximum hair shaft length and improving hair shaft elongation rate and hair shaft growth promotion at head hair, beard, eyebrows, and/or eyelashes. Human dermal papilla cells were therefore used, and evaluation was carried out with respect to increase in VEGF gene expression for the respective components. Human dermal papilla cells (Catalog No. CA60205a; derived from person; Toyobo Co., Ltd. (Japan)) were purchased, testing and evaluation being carried out with maintenance and culture of cells being performed as described in the protocol. As drugs for testing, drug solutions of the following respective concentrations (final concentrations) were prepared and used. • Comparative Example 1: 30 μM minoxidil • Working Example 1: 0.3125 μM phytosphingosine • Working Example 2: 1.25 μM phytosphingosine • Working Example 3: Liquid mixture of 30 μM minoxidil and 1.25 μM phytosphingosine A 24-well plate was seeded with human dermal papilla cells so as to obtain 6×10^3 thereof per well. Following culture for 1 day within a CO2 incubator (5% CO2; 37° C.), the culture medium was replaced with culture medium which contained the respective drugs for testing. The cell plate was thereafter returned to the CO2 incubator, and this was further cultured for 72 hours. […] The GAPDH gene was used as an internal standard, the amount of VEGF gene expression being calculated relative to the negative control group. […] Concentration of the recovered RNA was measured using a NanoDrop Lite (Catalog No. ND-LITE; Thermo Fisher Scientific K.K.), and this was stored at -80° C. until the following cDNA creation procedure. […] II cDNA synthesis 5× Ready Mix (Catalog No. NE-LS64; Nippon Genetics Co., Ltd. (Japan)) was used to synthesize cDNA. […] II cDNA synthesis 5× Ready Mix was added to 16 μL of this sample solution, and this was agitated by vortexing. […]

Row | Structure (SMILES) | change in amount of expression of the VEGF gene
1 | CCCCCCCCCCCCCC[C@@H](O)[C@@H](O)[C@@H](N)CO [Working Example 1, phytosphingosine] | increase in dosage-dependent fashion in the amount of expression of the VEGF gene as compared with the control group
2 | CCCCCCCCCCCCCC[C@@H](O)[C@@H](O)[C@@H](N)CO [Working Example 2, phytosphingosine] | increase in dosage-dependent fashion in the amount of expression of the VEGF gene as compared with the control group
3 | CCCCCCCCCCCCCC[C@@H](O)[C@@H](O)[C@@H](N)CO [phytosphingosine] | significantly greater than that which was produced as a result of action of minoxidil
